Test results published in PubChem BioAssay AID1645868 (Buhrlage Lab, Dana-Farber Cancer Institute and Novartis …, 2021).
pIC50: −log10 of the molar value. Activity calls are given as the source filed them.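 How the source made its calls: active means maximal percent inhibition of the deubiquitinase OTUD3 of at least 30% across the tested doses; inactive means the rest.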

Biological target: OTU domain-containing protein 3 (Homo sapiens) (UniProt Q5T2D3)
Experiment: Validation of screening hits, potency titration, in vitro enzymatic, OTU domain-containing protein 3 DUB inhibitors (AID 1645868)
Details: purified OTUD3, ubiquitin-rhodamine cleavage fluorescence, 2 h

Chain of OTU domain-containing protein 3 (Homo sapiens) (Q5T2D3 whole entry, looked up, the tested form may be a part): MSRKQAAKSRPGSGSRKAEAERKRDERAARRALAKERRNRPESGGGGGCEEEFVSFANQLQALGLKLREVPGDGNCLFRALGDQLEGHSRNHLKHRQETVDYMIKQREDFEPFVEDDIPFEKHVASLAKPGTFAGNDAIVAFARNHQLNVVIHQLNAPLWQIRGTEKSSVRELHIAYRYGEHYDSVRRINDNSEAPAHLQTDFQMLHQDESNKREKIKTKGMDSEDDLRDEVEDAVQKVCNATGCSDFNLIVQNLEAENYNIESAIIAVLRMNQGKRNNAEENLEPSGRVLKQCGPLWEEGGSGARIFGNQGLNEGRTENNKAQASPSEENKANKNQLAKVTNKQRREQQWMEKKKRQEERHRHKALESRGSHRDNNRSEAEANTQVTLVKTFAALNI

Cn1cccc1C(=O)N1CCCC2(C1)Nc1cccnc1NC2=NC1CCCC1 (configuration not stated)
IC50: > 50 µM (inactive)

CC1CCN(c2nc(F)c3c(c2F)S(=O)(=O)CCN3Cc2cccnc2)CC1
IC50: > 50 µM (inactive)

O=C(C(c1ccccc1)c1ccccc1)N1CCC(c2nc3c(nnn3Cc3c(F)cccc3Cl)c(=O)[nH]2)CC1
pIC50: 4.56

Cc1cc(-c2cnc(N(C)C)nc2-c2ccc(CNC(=O)Cc3ccc(F)cc3)cc2)on1
IC50: > 50 µM (inactive)

O=C(Nc1cc(Cl)cc(Cl)c1)c1csnn1
pIC50: 4.48

O=C(CN1C(=O)COc2ccc(Cl)cc21)Nc1cccc2ncccc12
IC50: > 50 µM (inactive)

COc1ccc(CCNC(=O)c2cc(C3CC3)nc3c2cnn3C(C)C)cc1
IC50: > 50 µM (inactive)

Cc1ccc(NC(=O)c2nnn(-c3ccccc3)n2)cc1F
IC50: > 50 µM (inactive)

O=c1[nH]c2ccc(S(=O)(=O)Nc3ccc(O)c4ccccc34)cc2[nH]1
IC50: > 50 µM (inactive)

COC1C(O)=C2C(=O)O/C(C)=C/C=C/C=C/C=C/CC(c3ccccc3)NC(=O)/C=C/C=C/C=C\C=C\C2(C)C1O (configuration not stated)
IC50: > 50 µM (inactive)

Cc1ccc(Nc2nc(C(=O)NCc3ccc4c(c3)OCO4)cc3occc23)cc1Cl
IC50: > 50 µM (inactive)

COc1ccc(OC)c(NC(=O)C2Oc3ccccc3NC2=O)c1 (configuration not stated)
IC50: > 50 µM (inactive)

COc1ccc(C)cc1NC(=O)C1CC(=O)Nc2nc3ccccc3n21 (configuration not stated)
pIC50: 4.40

O=C(NCc1cccc(NC(=O)C2CC2)c1)Nc1cccc2ccccc12
pIC50: 4.51

NS(=O)(=O)c1ccc(Cl)c(C(=O)OCc2csc(Nc3ccccc3)n2)c1
IC50: > 50 µM (inactive)

O=C(COc1nsnc1N1CCOCC1)Nc1ccccc1F
IC50: > 50 µM (inactive)

Cc1cc(/C=C2/C(=N)N3C(c4ccccc4)=CSC3=NC2=O)c(C)n1-c1ccc2ccccc2c1
IC50: > 50 µM (inactive)

CCOc1ccc2c(c1)c(=O)c(C(=O)c1ccc(C)cc1)cn2CC(=O)Nc1ccc(OC)c(OC)c1
pIC50: 5.70

O=C(Nc1ccc2nccnc2c1)c1cccc(C(F)(F)F)c1
IC50: > 50 µM (inactive)

COc1cc(NC(=O)Cn2c(=O)n(-c3ccc(CC(=O)NC4CCCC4)cc3)c(=O)c3ccccc32)cc(OC)c1
IC50: > 50 µM (inactive)

Cc1nn(C)c2c1[C@@H](c1ccc(F)cc1)[C@H](NC(=O)c1ccccc1)C(=O)N2
IC50: > 50 µM (inactive)

Fc1ccc(Oc2nc(CN3CCOCC3)nc3sc4c(c23)CCCC4)c(Cl)c1
IC50: > 50 µM (inactive)

Cc1ccc(C2c3cccn3CCN2C(=O)Nc2ccccc2)cc1 (configuration not stated)
IC50: > 50 µM (inactive)

COc1ccc(-c2cc(C(C)=O)c(C)n2CCC(=O)Nc2ccc(OC)cc2OC)cc1
IC50: > 50 µM (inactive)

COc1ccc(-c2nc(SCC(=O)Nc3ccc(C(C)=O)cc3)n[nH]2)cc1
pIC50: 4.74

O=C(CSc1nc2ccncc2[nH]1)Nc1ccc(Br)cc1F
pIC50: 4.30

O=C(/C=C/c1ccc2c(c1)OCO2)Nc1nc2c(s1)COCC2
IC50: > 50 µM (inactive)

CC1(C)C[C@@H](O)[C@]2(C)CC[C@]3(C)C(=CCC4[C@@]5(C)CC[C@H](O)[C@](C)(CO)[C@@H]5CC[C@]43C)[C@@H]2C1 (some centres not stated)
IC50: > 50 µM (inactive)

COc1ccc(N2C(=O)[C@@H]3[C@H]4c5ccccc5C=CN4C(C(=O)Nc4ccc5c(c4)OCO5)[C@@H]3C2=O)cc1 (some centres not stated)
IC50: > 50 µM (inactive)

CCn1c(SCC(=O)N2c3ccccc3CC2C)nnc1-c1ccc2c(c1)OCCO2 (configuration not stated)
IC50: > 50 µM (inactive)

CC(=O)N1CCOc2cc(S(=O)(=O)N3CCCC3c3cc(C)no3)ccc21 (configuration not stated)
IC50: > 50 µM (inactive)

Cc1ccc(NC2=NC(c3ccco3)n3c(nc(C)cc3=O)N2)c(C)c1 (configuration not stated)
IC50: > 50 µM (inactive)

CC1=CC(=O)C(C2=C(O)C(=O)C(C)=CC2=O)=C(O)C1=O
pIC50: 4.59

Cc1c(-c2nn3c(-c4ccco4)nnc3s2)cccc1[N+](=O)[O-]
IC50: > 5 µM (inactive)

O=c1c2cnc3nc(-c4cccnc4)nn3c2ccn1CCc1ccccc1
IC50: > 50 µM (inactive)

COc1cc2c(=O)n(CCC(=O)NCc3ccco3)c(=O)n(CC(=O)Nc3c(C)cccc3C)c2cc1OC
IC50: > 50 µM (inactive)

Nc1c(C(=O)c2cccs2)oc2nc(-c3ccccc3)cc(-c3ccco3)c12
IC50: > 50 µM (inactive)

COc1ccc(NC(=O)CSc2nnc(Cc3cccc4ccccc34)n2C)cc1
IC50: > 50 µM (inactive)

COc1cc2c(c3oc4cccc(O)c4c(=O)c13)C1C=COC1O2 (configuration not stated)
IC50: > 50 µM (inactive)

O=C(Nc1oc2ccccc2c(=O)c1-c1ccc2c(c1)OCO2)C1CCCCC1
IC50: > 50 µM (inactive)

COc1ccc(/C=C\c2nccc3c2[nH]c2ccccc23)cc1
IC50: > 50 µM (inactive)

CC(C)N1C[C@@H]2C[C@H](NS(=O)(=O)c3cccc(C#N)c3)CN2Cc2ccccc21
IC50: > 50 µM (inactive)

O=C(NCc1ccncc1)C1CCN(c2cncnc2N2CCCCC2)CC1
IC50: > 50 µM (inactive)

COc1ccc(Cl)c(NC(=O)C2CC(=O)Nc3cc(-c4ccccc4)nn32)c1 (configuration not stated)
pIC50: 4.60

COc1ccc(C(=O)Nc2ccccc2C(=O)NCc2ccccc2)cc1
IC50: > 50 µM (inactive)

O=C(NCc1ccc2c(c1)OCO2)c1nc(-c2ccccc2)n(-c2ccccc2)n1
IC50: > 50 µM (inactive)

Cc1cnnn1-c1ccc(C(=O)Nc2ccc(Cl)cc2)cc1
IC50: > 50 µM (inactive)
